Literature values in patent publication US20110171166A1, “POLYMER CONJUGATES OF O[…]” (Nektar Therapeutics, priority 2008, published 2011).

Legend:
[1] = tested on: WT mice; details: long-term treatment; gold thioglucose-induced hyperphagia and high-fat diet
[2] = tested on: isolated pancreatic islets, a β cell line
[3] = tested on: primary adipocytes; details: white and brown respectively

Substance: osteocalcin
- effect on body mass and glucose metabolism [1]: significantly weaken the deleterious effect on body mass and glucose metabolism
- amount sufficient to regulate the expression of the insulin genes and β cell proliferation markers [2]: picomolar amounts
- amount affecting adiponectin and Pgc1α expression in white and brown adipocytes [3]: nanomolar amounts
